Results taken from ChEMBL document CHEMBL1649490, “First detection of plasmid-encoded blaOXY beta-lactamase” (2009).
In brackets after ≈: the same amount, converted by molar mass.

How the values were obtained:
Type in all cases: functional
Klebsiella oxytoca [1] = experiment: Antimicrobial activity against Klebsiella oxytoca KO281 harboring beta-lactamase OXY-1 and CMY-2 by Etest method
Klebsiella pneumoniae [2] = experiment: Antimicrobial activity against Klebsiella pneumoniae 101A harboring beta-lactamase CMY-2 by Etest method
Klebsiella pneumoniae [3] = experiment: Antimicrobial activity against Klebsiella pneumoniae 278 harboring beta-lactamase OXY-1 by Etest method
Klebsiella oxytoca [4] = experiment: Antimicrobial activity against Klebsiella oxytoca KO280 harboring beta-lactamase OXY-1 by Etest method
Klebsiella pneumoniae [5] = experiment: Antimicrobial activity against Klebsiella pneumoniae 278sp by Etest method
Escherichia coli [6] = experiment: Antimicrobial activity against Escherichia coli DH5alpha by Etest method; settings: DH5[alpha]
Klebsiella oxytoca [7] = experiment: Antimicrobial activity against Klebsiella oxytoca KO279 harboring beta-lactamase OXY-1 by Etest method
Escherichia coli [8] = experiment: Antimicrobial activity against Escherichia coli TF-KO279 harboring beta-lactamase OXY-1 by Etest method
Escherichia coli [9] = experiment: Antimicrobial activity against Escherichia coli TF-KO281 harboring beta-lactamase OXY-1 by Etest method
Escherichia coli [10] = experiment: Antimicrobial activity against Escherichia coli TF-KP278 harboring beta-lactamase OXY-1 by Etest method

Row | Compound | MIC (Klebsiella oxytoca [1]) | MIC (Klebsiella pneumoniae [2]) | MIC (Klebsiella pneumoniae [3]) | MIC (Klebsiella oxytoca [4]) | MIC (Klebsiella pneumoniae [5]) | MIC (Escherichia coli [6]) | MIC (Klebsiella oxytoca [7]) | MIC (Escherichia coli [8]) | MIC (Escherichia coli [9]) | MIC (Escherichia coli [10])
1 | O=C(O)c1cn(C2CC2)c2cc(N3CCNCC3)c(F)cc2c1=O [CIPROFLOXACIN] | 0.38 µg/mL (≈ 1.15 µM) | 0.047 µg/mL (≈ 0.142 µM) | 0.38 µg/mL (≈ 1.15 µM) | 0.25 µg/mL (≈ 0.754 µM) | 0.047 µg/mL (≈ 0.142 µM) | 0.032 µg/mL (≈ 0.0966 µM) | 0.38 µg/mL (≈ 1.15 µM) | – | – | –
2 | C[C@H]1[C@H](NC(=O)/C(=N\OC(C)(C)C(=O)O)c2csc(N)n2)C(=O)N1S(=O)(=O)O [AZTREONAM] | ≥ 256 µg/mL | 6 µg/mL (≈ 13.8 µM) | 32 µg/mL (≈ 73.5 µM) | ≥ 256 µg/mL | 0.064 µg/mL (≈ 0.147 µM) | 0.023 µg/mL (≈ 0.0528 µM) | ≥ 256 µg/mL | 64 µg/mL (≈ 147 µM) | 128 µg/mL (≈ 294 µM) | 64 µg/mL (≈ 147 µM)
3 | CC(C)(O/N=C(\C(=O)N[C@@H]1C(=O)N2C(C(=O)[O-])=C(C[n+]3ccccc3)CS[C@H]12)c1csc(N)n1)C(=O)O [CEFTAZIDIME] | ≥ 256 µg/mL | 64 µg/mL (≈ 117 µM) | 1.5 µg/mL (≈ 2.74 µM) | 4 µg/mL (≈ 7.32 µM) | 1 µg/mL (≈ 1.83 µM) | 0.25 µg/mL (≈ 0.457 µM) | 4 µg/mL (≈ 7.32 µM) | 0.75 µg/mL (≈ 1.37 µM) | 1 µg/mL (≈ 1.83 µM) | 0.75 µg/mL (≈ 1.37 µM)
4 | CO[C@@]1(NC(=O)Cc2cccs2)C(=O)N2C(C(=O)O)=C(COC(N)=O)CS[C@@H]21 [CEFOXITIN] | ≥ 256 µg/mL | ≥ 256 µg/mL | 4 µg/mL (≈ 9.36 µM) | 3 µg/mL (≈ 7.02 µM) | 4 µg/mL (≈ 9.36 µM) | 2 µg/mL (≈ 4.68 µM) | 3 µg/mL (≈ 7.02 µM) | 2 µg/mL (≈ 4.68 µM) | 2 µg/mL (≈ 4.68 µM) | 2 µg/mL (≈ 4.68 µM)
5 | CO/N=C(\C(=O)N[C@@H]1C(=O)N2C(C(=O)O)=C(COC(C)=O)CS[C@H]12)c1csc(N)n1 [CEFOTAXIME] | 16 µg/mL (≈ 35.1 µM) | 6 µg/mL (≈ 13.2 µM) | 1 µg/mL (≈ 2.2 µM) | 1.5 µg/mL (≈ 3.29 µM) | 0.047 µg/mL (≈ 0.103 µM) | 0.023 µg/mL (≈ 0.0505 µM) | 1.5 µg/mL (≈ 3.29 µM) | 0.25 µg/mL (≈ 0.549 µM) | 0.38 µg/mL (≈ 0.834 µM) | 0.25 µg/mL (≈ 0.549 µM)
6 | CCn1cc(C(=O)O)c(=O)c2cc(F)c(N3CCNCC3)cc21 [NORFLOXACIN] | 1.5 µg/mL (≈ 4.7 µM) | 0.125 µg/mL (≈ 0.391 µM) | 1 µg/mL (≈ 3.13 µM) | 1 µg/mL (≈ 3.13 µM) | 0.125 µg/mL (≈ 0.391 µM) | 0.094 µg/mL (≈ 0.294 µM) | 1.5 µg/mL (≈ 4.7 µM) | 0.5 µg/mL (≈ 1.57 µM) | 0.5 µg/mL (≈ 1.57 µM) | 0.38 µg/mL (≈ 1.19 µM)
7 | CO/N=C(\C(=O)N[C@@H]1C(=O)N2C(C(=O)[O-])=C(C[N+]3(C)CCCC3)CS[C@H]12)c1csc(N)n1 [CEFEPIME] | 1.5 µg/mL (≈ 3.12 µM) | 0.5 µg/mL (≈ 1.04 µM) | 1 µg/mL (≈ 2.08 µM) | 1.5 µg/mL (≈ 3.12 µM) | 0.19 µg/mL (≈ 0.395 µM) | 0.032 µg/mL (≈ 0.0666 µM) | 1.5 µg/mL (≈ 3.12 µM) | – | 0.38 µg/mL (≈ 0.791 µM) | –
8 | CC1(C)S[C@@H]2[C@H](NC(=O)[C@H](N)c3ccccc3)C(=O)N2[C@H]1C(=O)O [AMPICILLIN] | ≥ 256 µg/mL | ≥ 256 µg/mL | ≥ 256 µg/mL | ≥ 256 µg/mL | 96 µg/mL (≈ 275 µM) | 4 µg/mL (≈ 11.4 µM) | ≥ 256 µg/mL | ≥ 256 µg/mL | ≥ 256 µg/mL | ≥ 256 µg/mL
9 | C[C@@H](O)[C@H]1C(=O)N2C(C(=O)O)=C(SCCNC=N)C[C@H]12 [IMIPENEM ANHYDROUS] | 0.25 µg/mL (≈ 0.835 µM) | 0.38 µg/mL (≈ 1.27 µM) | 0.25 µg/mL (≈ 0.835 µM) | 0.25 µg/mL (≈ 0.835 µM) | 0.25 µg/mL (≈ 0.835 µM) | 0.19 µg/mL (≈ 0.635 µM) | 0.25 µg/mL (≈ 0.835 µM) | 0.19 µg/mL (≈ 0.635 µM) | 0.19 µg/mL (≈ 0.635 µM) | 0.19 µg/mL (≈ 0.635 µM)
